Results published in patent publication US10118955B2, “C-terminal fragments of glucagon-like peptide-1 (GLP-1)” (The General Hospital Corporation, priority 2008, dated 2018).
Ends that are not written are not given here.

Tests used:
[1] = system: isolated hepatocytes; assay: hepatic gluconeogenesis in isolated hepatocytes (preliminary studies); type: cell-based; settings: high (micromolar) concentrations
[2] = Ban et al. 2008; cited from earlier work
[3] = system: hepatic glucose production (gluconeogenesis); settings: Elahi et al. 2008; cited from earlier work
[4] = system: 3T3-L1 adipocytes; assay: lipolysis (glycerol release) in 3T3-L1 adipocytes; type: cell-based; settings: 1-30 nM on a background of 10 nM isoproterenol, 60 min
Method: Preliminary studies on the effect of GLP-1(9-36) on lipolysis were also performed in isolated mouse hepatocytes and 3T3-L1 adipocytes. Glycerol release into the culture medium was used as a measure of active lipolysis, and isoproterenol serves as a known stimulator of lipolysis. In these experiments GLP-1(9-36)amide was added dose-wise (1-30 nM) on a background of 10 nM isoproterenol. Incubations were for 60 min.

[5] = biological target: GLP-1 GPCR (Homo sapiens, UniProt P43220); settings: (nM); cited from earlier work
[6] = system: white adipocytes; settings: Rodrigue-Way et al. 2007; cited from earlier work
[7] = system: CPT1 mRNA; assay: liver mRNA levels by QPCR in mice infused with GLP-1(28-36)amide; type: in vivo; settings: 28-36 infusion 3 weeks; for CPT1 mRNA/QPCR Fold Difference compared to LFD: normalized to LFD mice as 1.0, parentheses = down-regulation
Method: (§1) Mice were placed on VHFD or a LFD control diets at 6 weeks of age. Continuous infusion of GLP-1(28-36)amide, 6.5 nanomoles/24 hrs/KgBW via osmopumps was started at ten weeks of age and was continued for 3 weeks. Body weights were measured before and during these three weeks. Values are means and S.D.s of four mice in each group.
(§2) An examination of gene expression profiles in the livers of GLP-1(28-36)amide treated mice was performed. Measurements of mRNA levels by quantitative polymerase chain reaction (QPCR) in livers of mice given a very high fat diet (VHFD) or a normal low fat diet (LFD) for four weeks followed by subcutaneous osmopump infusions of either vehicle or GLP-1(28-36)amide for three additional weeks. Data in Table 2, below, show changes in mRNA levels in LFD and VHFD groups of mice comparing vehicle versus GLP-1(28-36)amide where vehicle is set at a value of 1.0. […] GLP-1(28-36)amide appears to regulate PEPCK, PPARg, CD36, SCD1, SREBP1c, FASN, and PPARa.

[8] = system: ACOX mRNA; assay: as above; type: in vivo; settings: 28-36 infusion 3 weeks; for ACOX mRNA/QPCR Fold Difference compared to LFD: normalized to LFD mice as 1.0, parentheses = down-regulation
Method: as §1, §2

[9] = system: SCD-1 mRNA; assay: as above; type: in vivo
Method: as §1, §2

[10] = system: PGC1α mRNA; assay: as above; type: in vivo; settings: 28-36 infusion 3 weeks
Method: as §1, §2

[11] = system: SREBP-1c mRNA; assay: as above; type: in vivo; settings: 28-36 infusion 3 weeks; for SREBP-1c mRNA/QPCR Fold Difference compared to LFD: normalized to LFD mice as 1.0, parentheses = down-regulation
Method: as §1, §2

[12] = system: PPARα mRNA; assay: as above; type: in vivo; settings: 28-36 infusion 3 weeks; for PPARα mRNA/QPCR Fold Difference compared to LFD: normalized to LFD mice as 1.0, parentheses = down-regulation
Method: as §1, §2

[13] = system: PPARγ mRNA; assay: as above; type: in vivo; settings: 28-36 infusion 3 weeks; for PPARγ mRNA/QPCR Fold Difference compared to LFD: normalized to LFD mice as 1.0, parentheses = down-regulation
Method: as §1, §2

[14] = system: FASN mRNA; assay: as above; type: in vivo; settings: 28-36 infusion 3 weeks
Method: as §1, §2

[15] = system: CD36 mRNA; assay: as above; type: in vivo; settings: 28-36 infusion 3 weeks; for CD36 mRNA/QPCR Fold Difference compared to LFD: normalized to LFD mice as 1.0, parentheses = down-regulation
Method: as §1, §2

[16] = system: PEPCK (phosphopyruvate carboxykinase) mRNA; assay: as above; type: in vivo; settings: 28-36 infusion 3 weeks; for PEPCK mRNA/QPCR Fold Difference compared to LFD: normalized to LFD mice as 1.0, parentheses = down-regulation
Method: as §1, §2

[17] = infusion in mice fed a very high fat diet: body weight, adipogenesis, food intake; type: in vivo; settings: for weight gain: mice on VHFD (60% fat), continuous infusion 6.5 nanomoles/24 hrs/KgBW via osmopumps, 3 weeks
Method: as §1
Glucagon-like peptide-1 (GLP-1) is an insulinotropic peptide that stimulates glucose-dependent insulin secretion (Kieffer and Habener, Endocr Rev. 20(6):876-913 (1999)). […] The neutral endopeptidase, NEP 24.11 is proposed to be responsible for the degradation of GLP-1, much as the Dpp4 had been thought of as a peptide degrading enzyme for GLP-1 (Plamboeck et al., Diabetologia. 48(9):1882-90 (2005)). The carboxyl-terminal sequence of GLP-1, […]amide, GLP-1(28-36)amide, is a major peptide product of the cleavage of GLP-1 by NEP 24.11 (Hupe-Sodmann et al., Regul Pept. 58(3):149-56 (1995)). Therefore GLP-1(28-36)amide was infused into mice both fed a normal chow diet (LFD) and a very high fat diet (VHFD) for three weeks.

[18] = system: phosphoACC (pACC, phospho-AcetylCoA carboxylase); assay: liver ACC / phosphoACC protein expression after infusion; type: in vivo; settings: mice fed a very high fat diet, infusion for three weeks
Text: FIGS. 4A-4C are bar graphs showing regulation of PEPCK (4A) and ACC Protein Expression (both the phosphorylated (pACC) and unphosphorylated (ACC) forms (4B) in the presence and absence of the GLP-1(28-36) peptide, as well as the effect of the peptide on ratios of phosphorylated to unphosphorylated ACC (4C).
This is important since ACC is highly regulated in the liver and is the key enzyme responsible for the synthesis of malonyl CoA from AcetylCoA and is a precursor of fatty acid synthesis and a potent inhibitor of CPT1 (carnitine palmitoyl transferase 1), the rate limiting enzyme in the transport of fatty acids into the beta oxidation machinery of mitochondria. This means that GLP-1(28-36) is exerting an inhibition on fatty acid oxidation (beta oxidation). The increase in SCD1 expression in response to infusion of GLP-1(28-36)amide is consistent with an increase in ACC activity since SCD1 is believed to inhibit AMP kinase which is an inhibitor of ACC. The mechanism currently proposed for the prevention of weight gain by GLP-1(28-36)amide in mice fed a very high fat diet involves a dual effect of GLP-1(28-36)amide on adipose tissue to enhance lipolysis and fat burning and inhibit lipogenesis. The increased fatty acid cycling and hypertriglyceridemia enhances hepatic fatty acid oxidation with consequent coupled enhanced gluconeogenesis driven by the enhanced fat burning. […]

[19] = LFD mice, vehicle set at 1.0, parentheses = down-regulation
[20] = VHFD mice, VHFD vehicle set at 1.0, parentheses = down-regulation
[21] = LFD mice, normalized to LFD mice as 1.0, parentheses = down-regulation
[22] = high fat fed mice, infusion for three weeks

GLP-1 GPCR, sequence (P43220 24-463): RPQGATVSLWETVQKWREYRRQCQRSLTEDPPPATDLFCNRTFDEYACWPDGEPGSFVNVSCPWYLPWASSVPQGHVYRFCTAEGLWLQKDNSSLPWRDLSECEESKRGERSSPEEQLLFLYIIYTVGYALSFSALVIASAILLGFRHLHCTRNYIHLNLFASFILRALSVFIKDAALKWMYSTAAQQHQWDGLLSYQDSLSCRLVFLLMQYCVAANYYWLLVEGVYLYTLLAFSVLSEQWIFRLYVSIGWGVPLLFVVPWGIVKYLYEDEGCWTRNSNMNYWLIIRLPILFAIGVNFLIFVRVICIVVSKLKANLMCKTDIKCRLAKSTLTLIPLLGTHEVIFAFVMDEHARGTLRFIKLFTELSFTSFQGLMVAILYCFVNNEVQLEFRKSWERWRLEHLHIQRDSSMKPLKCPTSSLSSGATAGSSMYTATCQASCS

Compound: GLP-1(9-36)amide
- actions on hepatic gluconeogenesis [1]: only weak actions
- cardioprotective actions [2]: exerts cardioprotective actions
- hepatic glucose production (gluconeogenesis) [3]: inhibits
- lipolysis (glycerol release into the culture medium) [4]: stimulates lipolysis in 3T3-L1 adipocytes in a dose dependent manner

Compound: exendin-4
- binding affinity to the GLP-1 GPCR [5]: high affinity

Compound: Cc1[nH]c2ccccc2c1C[C@@H](NC(=O)[C@@H](N)Cc1cnc[nH]1)C(=O)N[C@@H](C)C(=O)N[C@@H](Cc1c[nH]c2ccccc12)C(=O)N[C@H](Cc1ccccc1)C(=O)N[C@@H](CCCCN)C(N)=O [hexarelin, H-W(Me)-A-W-F-Kamide]
- mitochondrial biogenesis and fat burning phenotype [6]: promote mitochondrial biogenesis and a fat burning phenotype

Compound: FIAWLVKGR-NH2 [28-36]
- CPT1 mRNA/QPCR Fold Difference compared to LFD ([7]; LFD mice): 1.2 fold
- CPT1 mRNA/QPCR Fold Difference compared to PEPTIDE (28-36) [7, 19]: 1.21 fold
- CPT1 mRNA/QPCR Fold Difference compared to PEPTIDE (28-36) [7, 20]: 1.02 fold
- CPT1 mRNA/QPCR Fold Difference compared to LFD ([7]; VHFD mice): 1.74 fold
- ACOX mRNA/QPCR Fold Difference compared to LFD ([8]; LFD mice): 1.4 fold
- ACOX mRNA/QPCR Fold Difference compared to PEPTIDE (28-36) [8, 19]: 1.4 fold
- ACOX mRNA/QPCR Fold Difference compared to PEPTIDE (28-36) [8, 20]: 1.04 fold
- ACOX mRNA/QPCR Fold Difference compared to LFD ([8]; VHFD mice): 1.2 fold
- SCD1 expression ([9]; in response to infusion of GLP-1(28-36)amide): increase
- SCD-1 mRNA/QPCR Fold Difference compared to PEPTIDE (28-36) ([9]; liver, VHFD mice, 28-36 infusion 3 weeks, VHFD vehicle set at 1.0, parentheses = down-regulation): 3.05 fold
- PGC1α mRNA/QPCR Fold Difference compared to LFD [10, 21]: 1.35 fold
- PGC1α mRNA/QPCR Fold Difference compared to PEPTIDE (28-36) [10, 19]: 1.4 fold
- PGC1α mRNA/QPCR Fold Difference compared to PEPTIDE (28-36) [10, 20]: 1.2 fold
- SREBP-1c mRNA/QPCR Fold Difference compared to LFD ([11]; LFD mice): 1 fold
- SREBP-1c mRNA/QPCR Fold Difference compared to PEPTIDE (28-36) [11, 19]: 1.1 fold
- SREBP-1c mRNA/QPCR Fold Difference compared to PEPTIDE (28-36) [11, 20]: 1.3 fold
- SREBP-1c mRNA/QPCR Fold Difference compared to LFD ([11]; VHFD mice): 1 fold
- PPARα mRNA/QPCR Fold Difference compared to LFD ([12]; LFD mice): 1.2 fold
- PPARα mRNA/QPCR Fold Difference compared to PEPTIDE (28-36) [12, 19]: 1.2 fold
- PPARα mRNA/QPCR Fold Difference compared to PEPTIDE (28-36) [12, 20]: 1.35 fold
- PPARα mRNA/QPCR Fold Difference compared to LFD ([12]; VHFD mice): 1.9 fold
- PPARγ mRNA/QPCR Fold Difference compared to LFD ([13]; LFD mice): 1.54 fold
- PPARγ mRNA/QPCR Fold Difference compared to PEPTIDE (28-36) [13, 19]: 1.54 fold
- PPARγ mRNA/QPCR Fold Difference compared to PEPTIDE (28-36) [13, 20]: 1.4 fold
- PPARγ mRNA/QPCR Fold Difference compared to LFD ([13]; VHFD mice): 2.2 fold
- FASN mRNA/QPCR Fold Difference compared to LFD [14, 21]: 1 fold
- FASN mRNA/QPCR Fold Difference compared to PEPTIDE (28-36) [14, 19]: 1 fold
- FASN mRNA/QPCR Fold Difference compared to PEPTIDE (28-36) [14, 20]: 1.2 fold
- CD36 mRNA/QPCR Fold Difference compared to LFD ([15]; LFD mice): 1.25 fold
- CD36 mRNA/QPCR Fold Difference compared to PEPTIDE (28-36) [15, 19]: 1.25 fold
- CD36 mRNA/QPCR Fold Difference compared to PEPTIDE (28-36) [15, 20]: 1.7 fold
- CD36 mRNA/QPCR Fold Difference compared to LFD ([15]; VHFD mice): 1.7 fold
- PEPCK mRNA/QPCR Fold Difference compared to LFD ([16]; LFD mice): 1.6 fold
- PEPCK mRNA/QPCR Fold Difference compared to PEPTIDE (28-36) [16, 19]: 1.6 fold
- PEPCK mRNA/QPCR Fold Difference compared to PEPTIDE (28-36) [16, 20]: 1.5 fold
- PEPCK mRNA/QPCR Fold Difference compared to LFD ([16]; VHFD mice): 1.6 fold
- adipogenesis [17, 22]: completely prevented
- food intake [17, 22]: without observable differences
- weight gain ([17]; listed as GLP-1(28-36)): attenuates weight gain
- weight gain ([17]; listed as GLP-1(28-36)amide): completely prevented
- liver phosphoACC (pACC) [18]: decrease
